Source: patent US20240254119A1 (THIRD HARMONIC BIO, INC., priority 2022, published 2024)

Tests used:
[1] = Kinetic solubility assay; format: physicochemical; conditions: kinetic solubility, 50 mM PB (pH 7.4), shaken 24 hours at RT
How it was run: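 Test compounds from 10 mM DMSO stock were diluted in 50 mM phosphate buffer, pH 7.4, and shaken for 24 h at RT. After PTFE filtration and centrifugation, filtrate concentration was quantified by UPLC-UV/HPLC-UV against a standard curve.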

[2] = molecular target: T1, wtKIT (Homo sapiens, UniProt P10721); assay: Caliper biochemical assay, wtKIT; conditions: Table 6, read-out: KIT Biochemical IC50 avg
T1 construct: 1888289AM in the reaction mixtures
How it was run: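 Enzyme (5.0 nM wtKIT), 1 μM FAM-labelled peptide, 400 μM ATP and 10 mM MnCl2 in HEPES pH 7.5 with 1% DMSO, incubated 3 h at 25° C. EDTA quench; substrate and phosphoproduct separated by microfluidic electrophoresis and quantified by fluorescence.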

[3] = molecular target: T2, CSF-1R (Homo sapiens, UniProt P07333); assay: Caliper biochemical assay, CSF-1R; conditions: Table 6
T2 construct: purchased Invitrogen PV3249 (lot 662393N)
How it was run: (§1)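 Kinase, FAM-labelled peptide substrate, ATP and Mn^2+ incubated with compound for 3 h at 25° C, then quenched with EDTA buffer. Substrate and phosphorylated product separated by microfluidic electrophoresis and quantified by fluorescence intensity; no-enzyme wells define 100% inhibition.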

[4] = molecular target: T3, PDGFRα (Homo sapiens, UniProt P16234); assay: Caliper biochemical assay, PDGFRα; conditions: Table 6
T3 construct: purchased Millipore 14-467 (lot 26321_ACTI)
How it was run: as §1

[5] = tested on: KIT phosphorylation in M-07e cells; assay: Cell-based KIT phosphorylation in M-07e cells by pKIT ELISA; parameters: species or system human; conditions: SCF stimulation
Experimental: Exemplary compounds were tested for ability to inhibit KIT phosphorylation using M-07e cells as monitored by pKIT ELISA. M-07e cells are also represented as M-07E, M-07e, M07-e, M07e, Mo7e, MO7e, M07E and MO7E. Assay procedures and results are described below.
Part I—Procedures for Determining KIT Inhibition inM-07e Cells Using pKTT ELISA Reagents and consumables: • M-07e cells: Initially obtained from Accegen, cat #ABC-TC1313 • p-cKIT Capture ELISA antibody: anti-Human Phospho-CD117/c-kit, R&D cat #DYC3527-5 • Anti-pY-HIRP antibody: R&D cat #DYC3527-5 • 25× wash buffer: Quantikine ELISA Wash Buffer 1, R&D cat #WA126 • PBS: R&D cat #DY006 • 96 well ELISA plates: Clear Polystyrene Microplates, R&D Cat #DY990 • 96 well Tissue culture plates: Corning® 96 Well TC-Treated Microplates, cat #CLS3894 • RPMI medium: ATCC® RPMI-1640 Medium, Cat #30-2001 • FBS: Fetal Bovine Serum, certified, United States Gibco, Thermo-Fisher 16000044 • GM-CSF: Recombinant Human GM-CSF Protein, R&D cat #215-GM • SCF: Recombinant Human SCF Protein, R&D cat #255-SC
• 1. Prepare cells: • a. Culture M-07e cells in RPMI medium+20% serum+GM-CSF+penstrep • To make 50 mL of growth medium • i. 40 mL RPMI media • ii. 10 mL FBS • iii. 10 uL of GM-CSF (100 ug/mL stock) • iv. 0.5 mL pen strep (100×) • b. Harvest cells • c. Re-suspend cells in 100% RPMI media (without serum) to final concentration of 1 million cells/mL • d. Transfer 100 uL of cell solution to 11 columns of a 96 well flat bottom cell culture plate • e. Incubate cells over night at 37 C • 2. Prepare ELISA Plates: • a. Dilute capture antibody to concentration 4 ug/mL in PBS • b. Coat 96 well microplates with 100 uL of capture antibody • c. Seal plates and incubate at RT overnight • d. Wash plates with 300 uL of wash buffer • e. Repeat wash • f. Treat plates with 300 uL of blocking buffer at RT for 1 hour • 3. Addition of compounds: • a. Prepare compound dilutions in RPMI media • i. Top test concentration is 1 uM • ii. Serially dilute compounds 3× for a total of 8 concentrations • b. Add 10 uL of 10× compound dilutions to cells • i. No compounds added in column 11 (for controls) • c. Incubate cells with compounds for 2 hours at 37 C • d. Stimulate cells with SCF for 5 min at concentration of 100 ng/mL (final) • i. In column 11 stimulate top 4 wells. Leave bottom 4 wells unstimulated • e. Remove cell culture media with multichannel pipet • f. Add 110 uL of Lysis buffer to all wells • g. Incubate plates at RT for 30 min while shaking • 4. Transfer 100 uL of cell lysis to each prepared Elisa plate • 5. Add 100 uL of the standard pc-KIT dilutions to the standard wells in column 12 • a. Top concentration=2000 pg/mL • b. 2× dilutions • 6. Incubate ELISA plate with cell lysate for 2 hours at RT • 7. Wash Plate with wash buffer (wash 1) • 8. Repeat wash (wash 2) • 9. […] Add 100 uL of diluted anti-pY-HRP (1/1000 dilution in detection antibody dilution buffer) and incubate 2 hours at RT • 11. Wash plate with wash buffer (wash 1) • 12. Repeat wash (wash 2) • 13. Repeat wash (wash 3) • 14. Add 100 uL of substrate solution to each well • 15. Incubate plates 20 min • Note: Plate development is indicated by aqua color • 16. Add 50 uL of stop solution to each well • 17. Determine optical density on Bitek Synergy Neo2: • a. Make new experiment
Select absorbance 1 set to 450 nm

[6] = molecular target: T1, wtKIT; assay: HTRF biochemical assay, wtKIT (phosphorylation of a peptide substrate); conditions: Table 4
How it was run: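 wtKIT (5.0 nM) phosphorylating 1 µM FAM-labelled peptide with 400 µM ATP and 10 mM MnCl2 in 100 mM HEPES pH 7.5, 1% DMSO, 3 h at 25 °C. EDTA quench; phosphopeptide detected with anti-phosphotyrosine antibody by HTRF. Enzyme titrated for 10-20% substrate conversion.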

[7] = molecular target: T4, BCRP (BCRP-MDCKII monolayer) (Homo sapiens, UniProt Q9UNQ0); assay: MDCKII-BCRP bidirectional transport assay; format: in vitro ADME
T4 construct: host or cells: MDCKII (canine kidney) cells
T4 sequence (Q9UNQ0 1-655): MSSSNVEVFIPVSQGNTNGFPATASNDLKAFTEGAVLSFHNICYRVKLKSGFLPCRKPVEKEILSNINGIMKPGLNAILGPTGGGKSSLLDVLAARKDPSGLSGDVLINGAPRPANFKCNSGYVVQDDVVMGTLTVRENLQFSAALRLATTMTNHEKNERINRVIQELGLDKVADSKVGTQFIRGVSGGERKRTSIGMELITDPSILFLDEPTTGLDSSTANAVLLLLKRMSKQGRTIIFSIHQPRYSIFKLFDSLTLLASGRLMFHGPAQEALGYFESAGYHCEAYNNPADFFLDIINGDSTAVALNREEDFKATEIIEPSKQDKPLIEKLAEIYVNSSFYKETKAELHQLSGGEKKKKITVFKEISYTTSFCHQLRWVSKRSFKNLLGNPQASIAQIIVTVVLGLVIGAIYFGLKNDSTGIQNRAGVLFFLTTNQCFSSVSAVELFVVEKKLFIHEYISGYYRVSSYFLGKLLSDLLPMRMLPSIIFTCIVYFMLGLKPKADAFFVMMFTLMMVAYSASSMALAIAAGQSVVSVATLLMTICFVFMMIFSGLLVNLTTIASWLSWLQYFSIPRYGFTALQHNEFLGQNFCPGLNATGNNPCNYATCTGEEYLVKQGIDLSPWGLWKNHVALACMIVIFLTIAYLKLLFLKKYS
How it was run: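 Bidirectional A→B and B→A transport across PreadyPort BCRP-MDCKII monolayers (days 12–15) was run in duplicate for 120 min at 37° C, 5% CO2 after a 15 min preincubation. Compound levels were measured by LC-MS/MS. Papp and recovery were calculated, with efflux ratio indicating transporter engagement.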

T1 sequence (P10721 26-976): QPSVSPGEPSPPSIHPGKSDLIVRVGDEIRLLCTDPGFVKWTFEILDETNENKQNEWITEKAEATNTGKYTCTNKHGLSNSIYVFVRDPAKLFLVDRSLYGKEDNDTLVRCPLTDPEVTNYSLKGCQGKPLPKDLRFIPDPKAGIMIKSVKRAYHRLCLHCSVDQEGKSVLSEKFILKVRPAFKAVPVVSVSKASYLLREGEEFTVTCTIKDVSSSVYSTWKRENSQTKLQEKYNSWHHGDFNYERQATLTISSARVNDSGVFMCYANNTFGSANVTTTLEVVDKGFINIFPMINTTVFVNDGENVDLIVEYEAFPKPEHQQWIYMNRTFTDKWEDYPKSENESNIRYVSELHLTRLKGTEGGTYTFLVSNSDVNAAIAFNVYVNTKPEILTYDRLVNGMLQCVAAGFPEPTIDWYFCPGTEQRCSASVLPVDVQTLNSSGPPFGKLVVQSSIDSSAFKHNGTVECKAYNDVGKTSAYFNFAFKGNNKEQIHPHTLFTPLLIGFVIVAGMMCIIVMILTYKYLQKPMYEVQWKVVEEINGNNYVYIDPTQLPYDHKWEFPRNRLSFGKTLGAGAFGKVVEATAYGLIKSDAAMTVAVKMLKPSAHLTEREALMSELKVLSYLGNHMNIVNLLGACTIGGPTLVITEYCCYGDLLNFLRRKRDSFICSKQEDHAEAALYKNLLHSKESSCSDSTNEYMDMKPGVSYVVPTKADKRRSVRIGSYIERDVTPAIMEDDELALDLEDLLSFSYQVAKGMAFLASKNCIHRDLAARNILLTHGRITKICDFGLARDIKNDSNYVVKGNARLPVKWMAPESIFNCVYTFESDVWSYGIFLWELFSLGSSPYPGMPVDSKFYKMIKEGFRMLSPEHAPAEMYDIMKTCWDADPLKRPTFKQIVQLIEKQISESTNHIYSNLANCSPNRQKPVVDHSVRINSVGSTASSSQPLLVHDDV
T2 sequence (P07333 20-972): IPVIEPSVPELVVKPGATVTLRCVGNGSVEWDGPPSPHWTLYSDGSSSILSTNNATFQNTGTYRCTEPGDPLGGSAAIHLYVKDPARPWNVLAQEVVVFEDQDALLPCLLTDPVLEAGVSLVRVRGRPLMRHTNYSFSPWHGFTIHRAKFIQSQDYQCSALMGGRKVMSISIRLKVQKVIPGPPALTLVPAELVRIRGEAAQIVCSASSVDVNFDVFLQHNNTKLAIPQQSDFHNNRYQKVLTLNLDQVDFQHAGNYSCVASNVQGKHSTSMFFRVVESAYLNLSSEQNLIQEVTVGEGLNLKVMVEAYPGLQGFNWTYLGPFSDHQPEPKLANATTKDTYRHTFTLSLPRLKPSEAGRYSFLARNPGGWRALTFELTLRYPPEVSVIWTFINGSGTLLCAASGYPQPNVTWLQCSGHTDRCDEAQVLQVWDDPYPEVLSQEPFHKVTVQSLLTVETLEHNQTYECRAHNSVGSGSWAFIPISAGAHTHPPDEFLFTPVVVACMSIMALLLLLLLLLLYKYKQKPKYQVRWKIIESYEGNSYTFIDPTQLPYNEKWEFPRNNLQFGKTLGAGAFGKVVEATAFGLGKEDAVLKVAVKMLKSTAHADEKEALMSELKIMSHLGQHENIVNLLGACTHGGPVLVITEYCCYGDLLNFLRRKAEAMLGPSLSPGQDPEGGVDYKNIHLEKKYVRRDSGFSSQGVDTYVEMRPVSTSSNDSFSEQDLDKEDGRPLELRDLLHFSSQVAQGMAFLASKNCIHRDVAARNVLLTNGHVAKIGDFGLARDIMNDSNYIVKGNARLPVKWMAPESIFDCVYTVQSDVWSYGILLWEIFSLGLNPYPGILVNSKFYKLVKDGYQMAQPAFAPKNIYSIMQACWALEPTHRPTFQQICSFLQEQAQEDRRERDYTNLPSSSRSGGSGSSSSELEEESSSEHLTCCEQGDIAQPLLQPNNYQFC
T3 sequence (P16234 24-1089): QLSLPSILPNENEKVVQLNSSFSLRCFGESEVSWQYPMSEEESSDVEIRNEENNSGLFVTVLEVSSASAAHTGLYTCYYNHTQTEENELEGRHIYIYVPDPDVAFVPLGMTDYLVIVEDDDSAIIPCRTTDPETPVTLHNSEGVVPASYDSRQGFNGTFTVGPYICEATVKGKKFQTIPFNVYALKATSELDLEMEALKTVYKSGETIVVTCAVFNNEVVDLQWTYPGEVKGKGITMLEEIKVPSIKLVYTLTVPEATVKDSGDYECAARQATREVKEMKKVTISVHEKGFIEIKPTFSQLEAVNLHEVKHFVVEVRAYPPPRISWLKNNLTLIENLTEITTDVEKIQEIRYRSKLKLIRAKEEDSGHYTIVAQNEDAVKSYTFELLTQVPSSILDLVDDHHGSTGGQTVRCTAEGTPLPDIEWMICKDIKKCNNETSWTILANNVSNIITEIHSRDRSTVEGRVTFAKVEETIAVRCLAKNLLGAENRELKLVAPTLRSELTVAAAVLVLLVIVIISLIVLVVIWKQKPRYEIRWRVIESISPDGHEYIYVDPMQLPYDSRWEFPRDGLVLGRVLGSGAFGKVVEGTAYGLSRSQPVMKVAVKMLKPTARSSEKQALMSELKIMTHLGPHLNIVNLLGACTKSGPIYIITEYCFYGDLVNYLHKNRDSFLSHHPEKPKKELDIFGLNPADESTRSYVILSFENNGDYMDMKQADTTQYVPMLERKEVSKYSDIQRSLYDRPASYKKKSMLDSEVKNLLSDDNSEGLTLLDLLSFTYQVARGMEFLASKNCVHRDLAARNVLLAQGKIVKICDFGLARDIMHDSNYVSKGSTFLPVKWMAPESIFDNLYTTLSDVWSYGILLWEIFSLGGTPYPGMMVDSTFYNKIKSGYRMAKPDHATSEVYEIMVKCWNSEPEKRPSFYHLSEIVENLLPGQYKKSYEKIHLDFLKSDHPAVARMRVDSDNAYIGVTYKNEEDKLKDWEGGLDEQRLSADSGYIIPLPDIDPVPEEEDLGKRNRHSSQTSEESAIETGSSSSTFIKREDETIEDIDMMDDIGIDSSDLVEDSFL

Row | Compound | Solubility (μM) [1] | IC50 [2] [nM] | IC50 [3] [nM] | IC50 [4] [nM] | IC50 [5] [nM] | IC50 [6] [nM] | MDCK-BCRP: Efflux Ratio [7] | MDCK-BCRP: Papp A-B ([7]; apical to basolateral)
1 | COCc1ccn2c(C(=O)Nc3cc(-c4noc(C5CN(C(=O)OC)C5)n4)ccc3C)cnc2c1 [Compound I-140] | *** (a solubility greater than 2 μM and less than or equal to 10 μM) | ≤ 50 | 50 to 500 | 5000 to 30000 | 50 to 500 | – | – | –
2 | Cc1ccc(-c2noc([C@@H]3CCN3S(=O)(=O)c3cccnc3)n2)cc1NC(=O)c1cnc2ccccn12 [Compound I-185] | **** (a solubility less than or equal to 2 μM) | ≤ 50 | ≤ 50 | 50 to 500 | ≤ 50 | – | – | –
3 | Cc1ccc(-c2noc([C@@H]3CC4(CC4)CN3)n2)cc1NC(=O)c1cnc2ccccn12 [Compound I-230] | ** (a solubility greater than 10 μM and less than or equal to 50 μM) | ≤ 50 | ≤ 50 | 50 to 500 | ≤ 50 | ≤ 50 | – | –
4 | CCCS(=O)(=O)N1CCC1c1nc(-c2ccc(C)c(NC(=O)c3cnc4ccccn34)c2)no1 (centres unmarked) [Compound I-242] | *** (a solubility greater than 2 μM and less than or equal to 10 μM) | ≤ 50 | – | – | 50 to 500 | ≤ 50 | – | –
5 | Cc1ccc(-c2noc(C3CC3(C)C)n2)cc1NC(=O)c1cnc2ccccn12 (centres unmarked) [Compound I-127] | – | ≤ 50 | ≤ 50 | 50 to 500 | ≤ 50 | – | – | –
6 | COC(=O)N1CC(c2nc(-c3ccc(C#N)c(NC(=O)c4cnc5ccccn45)c3)no2)C1 [Compound I-212] | *** (a solubility greater than 2 μM and less than or equal to 10 μM) | 50 to 500 | – | – | 50 to 500 | 50 to 500 | – | –
7 | Cc1nc(-c2ccc(C)c(NC(=O)c3cnn4ccccc34)c2)no1 [Compound I-428] | – | ≤ 50 | 500 to 5000 | 500 to 5000 | ≤ 50 | – | – | –
8 | COC(=O)N1CC(c2nc(-c3ccc(C)c(NC(=O)c4cnc5cc(OCC(C)(C)O)ccn45)c3)no2)C1 [Compound I-261] | ** (a solubility greater than 10 μM and less than or equal to 50 μM) | ≤ 50 | ≤ 50 | 50 to 500 | ≤ 50 | ≤ 50 | – | –
9 | Cc1ccc(-c2noc(C3CC4(C3)CC(F)(F)C4)n2)cc1NC(=O)c1cnc2ccccn12 [Compound I-266] | **** (a solubility less than or equal to 2 μM) | ≤ 50 | ≤ 50 | 50 to 500 | ≤ 50 | ≤ 50 | – | –
10 | Cc1ccc(-c2noc(C[C@@H](C)O)n2)cc1NC(=O)c1cnc2cc(C(F)F)ccn12 [Compound I-83] | **** (a solubility less than or equal to 2 μM) | – | – | – | ≤ 50 | – | 25.3 | 0.96 10^−6 cm/s
11 | O=C(Nc1cc(-c2noc([C@@H]3CC(F)(F)CN3)n2)ccc1Cl)c1cnc2ccccn12 [Compound I-221] | **** (a solubility less than or equal to 2 μM) | ≤ 50 | 50 to 500 | 5000 to 30000 | 50 to 500 | 50 to 500 | – | –
12 | Cc1ccc(-c2noc(C[C@H](C)O)n2)cc1NC(=O)c1cnc2cc(C(F)F)ccn12 [Compound I-82] | **** (a solubility less than or equal to 2 μM) | – | – | – | 50 to 500 | – | – | –
13 | Cc1ccc(-c2noc(N3CCC(F)(F)CC3)n2)cc1NC(=O)c1cnc2ccccn12 [Compound I-214] | *** (a solubility greater than 2 μM and less than or equal to 10 μM) | ≤ 50 | – | – | 50 to 500 | 50 to 500 | – | –
14 | Cc1ccc(-c2noc([C@@H]3CCN3S(=O)(=O)c3cn(C)cn3)n2)cc1NC(=O)c1cnc2ccccn12 [Compound I-184] | **** (a solubility less than or equal to 2 μM) | ≤ 50 | 50 to 500 | 500 to 5000 | 500 to 5000 | – | – | –
